Results taken from PubChem BioAssay AID2060901 (Molecular Pharmacology Branch, DTP, NCI, 2025).
pIC50: −log10 of the molar value.

System: 422866-222-R5-J1-PDC complex spheroids viability
Assay: Anticancer human tumor 422866-222-R5-J1-PDC patient-derived pancreatic adenocarcinoma cell line growth inhibition [RAS]
Details: for viability, T/C: stronger effect = lower value; active means viability on the fitted dose curve at most 10% of control; inactive means the rest
Method in brief: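 Tumour cells grown as complex spheroids with HUVEC endothelial cells and mesenchymal stem cells, treated with RAS pathway inhibitor combinations. Each agent spans half-log steps from near clinical Cmax, or 10 microM where Cmax is unknown.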

[1] = curve of first compound, second compound 0.00316 µM
[2] = curve of first compound, second compound 0.01 µM
[3] = curve of first compound, second compound 0.0316 µM
[4] = curve of first compound, second compound 0.1 µM
[5] = curve of first compound, second compound 0.316 µM
[6] = curve of first compound, second compound 1 µM
[7] = second compound 0.00316 µM, first compound 0.0316 µM
[8] = second compound 0.00316 µM, first compound 0.1 µM
[9] = second compound 0.00316 µM, first compound 0.316 µM
[10] = second compound 0.00316 µM, first compound 1 µM
[11] = second compound 0.00316 µM, first compound 3.16 µM
[12] = second compound 0.00316 µM, first compound 10 µM
[13] = second compound 0.01 µM, first compound 0.0316 µM
[14] = second compound 0.01 µM, first compound 0.1 µM
[15] = second compound 0.01 µM, first compound 0.316 µM
[16] = second compound 0.01 µM, first compound 1 µM
[17] = second compound 0.01 µM, first compound 3.16 µM
[18] = second compound 0.01 µM, first compound 10 µM
[19] = second compound 0.0316 µM, first compound 0.0316 µM
[20] = second compound 0.0316 µM, first compound 0.1 µM
[21] = second compound 0.0316 µM, first compound 0.316 µM
[22] = second compound 0.0316 µM, first compound 1 µM
[23] = second compound 0.0316 µM, first compound 3.16 µM
[24] = second compound 0.0316 µM, first compound 10 µM
[25] = second compound 0.1 µM, first compound 0.0316 µM
[26] = second compound 0.1 µM, first compound 0.1 µM
[27] = second compound 0.1 µM, first compound 0.316 µM
[28] = second compound 0.1 µM, first compound 1 µM
[29] = second compound 0.1 µM, first compound 3.16 µM
[30] = second compound 0.1 µM, first compound 10 µM
[31] = second compound 0.316 µM, first compound 0.0316 µM
[32] = second compound 0.316 µM, first compound 0.1 µM
[33] = second compound 0.316 µM, first compound 0.316 µM
[34] = second compound 0.316 µM, first compound 1 µM
[35] = second compound 0.316 µM, first compound 3.16 µM
[36] = second compound 0.316 µM, first compound 10 µM
[37] = second compound 1 µM, first compound 0.0316 µM
[38] = second compound 1 µM, first compound 0.1 µM
[39] = second compound 1 µM, first compound 0.316 µM
[40] = second compound 1 µM, first compound 1 µM
[41] = second compound 1 µM, first compound 3.16 µM
[42] = second compound 1 µM, first compound 10 µM
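Further: spheroids exposed to compounds for 7 days.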
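Wherever viability, T/C is given: 100% = DMSO vehicle control viability.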

Cc1nc(N2CCC3(CC2)COC(C)C3N)c(CO)nc1Sc1ccnc(N)c1Cl (configuration not stated) + C=CC(=O)N1CCN(c2nc(OCC3CCCN3C)nc3c(F)c(-c4nc(N)cc(C)c4C(F)(F)F)c(Cl)cc23)C(C)C1
inactive: viability, T/C [7] 24.8% | viability, T/C [8] 21.8% | viability, T/C [9] 17.4% | viability, T/C [10] 15% | viability, T/C [11] 15.1% | viability, T/C [12] 14.8% | viability, T/C [13] 30.3% | viability, T/C [14] 19.8% | viability, T/C [15] 25% | viability, T/C [16] 15.4% | viability, T/C [17] 14.8% | viability, T/C [18] 14.2% | viability, T/C [19] 21.1% | viability, T/C [20] 19.3% | viability, T/C [21] 13.8% | viability, T/C [22] 13.8% | viability, T/C [23] 15.8% | viability, T/C [24] 17.7% | viability, T/C [25] 20% | viability, T/C [26] 15.1% | viability, T/C [27] 15.7% | viability, T/C [28] 13.2% | viability, T/C [29] 17.5% | viability, T/C [30] 14.4% | viability, T/C [31] 15.9% | viability, T/C [32] 16.4% | viability, T/C [33] 16% | viability, T/C [34] 13.4% | viability, T/C [35] 17.7% | viability, T/C [36] 17.8% | viability, T/C [37] 21.5% | viability, T/C [38] 15.2% | viability, T/C [39] 19.2% | viability, T/C [40] 15.1% | viability, T/C [41] 15.9% | viability, T/C [42] 18.9%
> 7.50: pIC50 [1] | pIC50 [2] | pIC50 [3] | pIC50 [4] | pIC50 [5] | pIC50 [6]

CC1(C)CCC(Nc2ncc(C(F)(F)F)c(-c3c[nH]c4c(P(C)(C)=O)c(C#N)ccc34)n2)CN1 (configuration not stated)
inactive: viability, T/C (compound 0.003 µM) 93% [middle of 4 runs] | viability, T/C (compound 0.00949 µM) 78.1% [middle of 4 runs] | viability, T/C (compound 0.03 µM) 73.1% [middle of 4 runs] | viability, T/C (compound 0.0949 µM) 67.2% [middle of 4 runs] | viability, T/C (compound 0.3 µM) 69.9% [middle of 4 runs]
< 6.52: pIC50 (curve of compound)

CC(=O)OC12COC1CC(O)C1(C)C(=O)C(O)C3=C(C)C(OC(=O)C(O)C(NC(=O)OC(C)(C)C)c4ccccc4)CC(O)(C(OC(=O)c4ccccc4)C21)C3(C)C (configuration not stated) + C=CC(=O)N1CCN(c2nc(OCC3CCCN3C)nc3c(F)c(-c4nc(N)cc(C)c4C(F)(F)F)c(Cl)cc23)C(C)C1
> 7.50: pIC50 [1] | pIC50 [2] | pIC50 [3] | pIC50 [4] | pIC50 [5] | pIC50 [6]
inactive: viability, T/C [7] 19.5% | viability, T/C [8] 21.1% | viability, T/C [9] 26.7% | viability, T/C [10] 22% | viability, T/C [11] 19.1% | viability, T/C [12] 26% | viability, T/C [13] 21.5% | viability, T/C [14] 20.8% | viability, T/C [15] 20.4% | viability, T/C [16] 17.6% | viability, T/C [17] 20.4% | viability, T/C [18] 19.6% | viability, T/C [19] 17.9% | viability, T/C [20] 20.8% | viability, T/C [21] 19.3% | viability, T/C [22] 17% | viability, T/C [23] 21.2% | viability, T/C [24] 20.9% | viability, T/C [25] 17.3% | viability, T/C [26] 21% | viability, T/C [27] 18.1% | viability, T/C [28] 19.2% | viability, T/C [29] 22.5% | viability, T/C [30] 22.5% | viability, T/C [31] 15.3% | viability, T/C [32] 17.8% | viability, T/C [33] 19.5% | viability, T/C [34] 17.6% | viability, T/C [35] 18.4% | viability, T/C [36] 23.3% | viability, T/C [37] 16.6% | viability, T/C [38] 17.7% | viability, T/C [39] 22.7% | viability, T/C [40] 20% | viability, T/C [41] 22.3% | viability, T/C [42] 22.6%

CCC(CC)c1cc(NC2CCC(N)C2)n2nccc2n1 (configuration not stated) + C=CC(=O)N1CCN(c2nc(OCC3CCCN3C)nc3c(F)c(-c4nc(N)cc(C)c4C(F)(F)F)c(Cl)cc23)C(C)C1
> 7.50: pIC50 [1] | pIC50 [2] | pIC50 [3] | pIC50 [4] | pIC50 [5] | pIC50 [6]
inactive: viability, T/C [7] 25.9% | viability, T/C [8] 36.1% | viability, T/C [9] 32.8% | viability, T/C [10] 30.5% | viability, T/C [11] 9.42% | viability, T/C [12] 32.1% | viability, T/C [13] 36.9% | viability, T/C [14] 26.8% | viability, T/C [15] 30.6% | viability, T/C [16] 28.9% | viability, T/C [17] 8.11% | viability, T/C [18] 33.1% | viability, T/C [19] 38.8% | viability, T/C [20] 34.4% | viability, T/C [21] 26.6% | viability, T/C [22] 27.2% | viability, T/C [23] 8.27% | viability, T/C [24] 31.5% | viability, T/C [25] 19.1% | viability, T/C [26] 24.1% | viability, T/C [27] 24.2% | viability, T/C [28] 25.6% | viability, T/C [29] 6.99% | viability, T/C [30] 35.6% | viability, T/C [31] 19.3% | viability, T/C [32] 22.3% | viability, T/C [33] 27.6% | viability, T/C [34] 25.3% | viability, T/C [35] 7.15% | viability, T/C [36] 36.3% | viability, T/C [37] 19.6% | viability, T/C [38] 22.8% | viability, T/C [39] 28.9% | viability, T/C [40] 27.1% | viability, T/C [41] 9.75% | viability, T/C [42] 41.1%
